{"source": "paper PMC8557888", "about": "“Intracellular Accumulation of Novel and Clinically Used TB Drugs Potentiates Intracellular Synergy” (Microbiology Spectrum, 2021)", "key": {"M. tuberculosis H37Rv [1]": {"test_system": "M. tuberculosis H37Rv", "settings": "cited from earlier work"}, "[2]": {"test": "THP-1 cell viability during accumulation experiment (trypan blue)", "settings": "human"}, "[3]": {"settings": "male, C57BL/6, mouse, in vivo, po, 10 mg/kg"}, "[4]": {"test_system": "M. smegmatis-infected THP-1 cells"}, "M. tuberculosis H37Rv [5]": {"test_system": "M. tuberculosis H37Rv", "test": "Intracellular efficacy (CFU plating) in M. tuberculosis-infected THP-1 cells", "assay_type": "cell-based, Mycobacterium tuberculosis", "settings": "M. tuberculosis H37Rv-infected THP-1 cells, 20× MIC, 96-h assay; for decrease in bacterial count from starting count: given as size of decrease; for change in bacterial count compared to starting bacterial count: signed value"}, "[6]": {"test": "PhX1 concentrations in murine plasma, epithelial lining fluid and alveolar macrophages (BAL procedure, LC-MS/MS)", "settings": "mice; for Kp / AUC / Cmax: male, C57BL/6, mouse, in vivo, 10 mg/kg; for AUC: 24 h"}, "M. tuberculosis": {"test_system": "M. tuberculosis", "test": "Two-dimensional checkerboard synergy assay", "assay_type": "cell-based, Mycobacterium tuberculosis", "settings": "PhX1/WHN296 combination"}, "THP-1 cells [7]": {"test_system": "THP-1 cells", "test": "Intracellular accumulation in uninfected THP-1 cells (LC-MS/MS)", "settings": "5 μg/ml of each compound, 48 h"}, "M. smegmatis": {"test_system": "M. smegmatis", "assay_type": "cell-based, Mycobacterium smegmatis"}, "[8]": {"test_system": "M. tuberculosis-infected THP-1 cells", "settings": "20× MIC", "description": "An intracellular accumulation ratio, defined as the intracellular compound concentration divided by the extracellular concentration, was used in this study to allow comparison between compounds (Fig. 5B).\nThe intracellular accumulation of the combination of PhX1 and WHN296 in the M. tuberculosis-infected THP-1 cell model was evaluated using quantitative LC-MS/MS at time points of 24, 48, 72, and 96 h (n = 3 for each time point). In this experiment, intracellular drug concentrations are reported in ng/ml to allow comparisons to be made with the minimum compound levels required to achieve synergy.\nTHP-1 cells were grown in RPMI medium containing 10% FCS at 37°C in 5% CO2. Cells were seeded and differentiated according to the above protocol for 24 h using PMA. M. tuberculosis (H37RvMa) cells were grown to mid-log phase in 7H9 medium. THP-1 cells were infected at an MOI of 5. Following 3 h of infection, wells were washed with RPMI medium to remove extracellular bacteria and dead cells. RPMI medium containing a predetermined concentration of compound was added to each well in triplicate. The solution was allowed to equilibrate for 30 min. In addition, three wells were left without drug treatment (following M. tuberculosis infection) and served as untreated controls, while an additional three wells of THP-1 cells were left uninfected and were used as uninfected controls. Thereafter, at each time point, cells were washed with RPMI medium. This was followed by the addition of EDTA (5 mM), after which 5 min was allowed for the cells to detach. Trypan blue-stained cells were counted using the automated cell counter. The remaining supernatant (150 μl) was added directly to an Eppendorf tube containing chloroform/methanol (3:1, vol/vol) and 1 μg/ml of compound-specific internal standard (deuterated internal standard for known anti-TB compounds and carbamazepine for novel compounds). […] Samples were processed using quantitative LC-MS/MS assays. […] These were then used to construct calibration curves, which were subsequently used to quantitate the amount of analyte in each respective sample."}, "in vitro": {"test": "in vitro", "settings": "human"}, "THP-1 cells [9]": {"test_system": "THP-1 cells", "settings": "human, 5 μg/ml"}, "[10]": {"settings": "cited from earlier work"}, "[11]": {"settings": "cited from earlier work", "remark": "listed apart in the source"}}, "note": "Values joined by “and” are separate entries in the source; they are usually repeats but may differ in a detail not shown here. Equal values may be shown once. Read-outs that look alike come from different tables or passages of the source.", "data": [{"compound": "CCN(CC)c1ccc2nc3c4ccccc4/c(=N\\c4ccccc4)cc-3oc2c1", "note": "[PhX1]", "values": [{"measurement": "MIC90", "setting": "M. tuberculosis H37Rv [1]; M. tuberculosis H37Rv in vitro", "value": "0.19 µM and 0.194 µM"}, {"measurement": "increase in efficacy against in vitro M. tuberculosis over PhX6", "setting": "M. tuberculosis H37Rv [1]; PhX1 vs PhX6", "value": 2, "unit": "fold"}, {"measurement": "MIC90", "setting": "M. tuberculosis H37Rv [1]; line printed in Fig 2", "value": 0.089, "unit": "µg/mL"}, {"measurement": "viability at 48 h, 5 μg/ml", "setting": "[2]", "value": "92 ± 5.8", "unit": "%"}, {"measurement": "time plasma concentration above M. tuberculosis MIC90", "setting": "[3]", "value": "approximately 6 h"}, {"measurement": "intracellular accumulation compared among phenoxazines", "setting": "[4]", "value": "significantly higher than those of the majority of the other phenoxazines"}, {"measurement": "time to steady state of accumulation", "setting": "[4]; human", "value": 2, "unit": "h"}, {"measurement": "decrease in bacterial count from starting count", "setting": "M. tuberculosis H37Rv [5]", "value": 0.8, "unit": "log10CFU/ml"}, {"measurement": "change in bacterial count compared to starting bacterial count", "setting": "M. tuberculosis H37Rv [5]", "value": "−0.8", "unit": "log10CFU/ml"}, {"measurement": "Kp", "setting": "[6]; ELFAUC/plasmaAUC", "value": 1.7}, {"measurement": "AUC", "setting": "[6]; po, AUC in epithelial lining fluid cells (alveolar macrophages), 10 mg/kg oral, ELF cells", "value": 5020, "unit": "ng·h/mL"}, {"measurement": "AUC", "setting": "[6]; po, AUC in epithelial lining fluid, 10 mg/kg oral, ELF", "value": 2090, "unit": "ng·h/mL"}, {"measurement": "AUC", "setting": "[6]; po, AUC in plasma, 10 mg/kg oral, plasma", "value": 1170, "unit": "ng·h/mL"}, {"measurement": "Cmax", "setting": "[6]; po, Cmax in epithelial lining fluid cells (alveolar macrophages), 10 mg/kg oral, ELF cells", "value": "895 ± 23", "unit": "ng/mL"}, {"measurement": "Cmax", "setting": "[6]; po, Cmax in epithelial lining fluid, 10 mg/kg oral, ELF", "value": "452 ± 22", "unit": "ng/mL"}, {"measurement": "Cmax", "setting": "[6]; po, Cmax in plasma, 10 mg/kg oral, plasma", "value": "200 ± 75", "unit": "ng/mL"}, {"measurement": "Kp", "setting": "[6]; po, ELF AUC relative to plasma, 10 mg/kg oral", "value": "~2"}, {"measurement": "Kp", "setting": "[6]; po, ELF cell AUC relative to plasma, 10 mg/kg oral", "value": "~4"}, {"measurement": "ELF cell AUC relative to epithelial lining fluid", "setting": "[6]; 10 mg/kg oral", "value": 2, "unit": "fold"}, {"measurement": "time above MIC90 in epithelial lining fluid", "setting": "[6]; 10 mg/kg oral, ELF", "value": 8, "unit": "h"}, {"measurement": "log ratio of epithelial lining fluid to plasma concentration", "setting": "[6]; single-point values such as Cmax", "value": 0.65}, {"measurement": "minimum value required to produce synergy (2D-synergy level)", "setting": "M. tuberculosis", "value": 153.1, "unit": "ng/mL"}, {"measurement": "Equilibrium level reached (intracellular concentration)", "setting": "THP-1 cells [7]", "value": "4,750 ± 127.2 ng/ml"}, {"measurement": "change in M. smegmatis-associated green fluorescence", "setting": "M. smegmatis", "value": "no significant change"}]}, {"compound": "CCN(CC)c1ccc2nc3c4ccccc4c(=Nc4ccccn4)cc-3oc2c1", "note": "[PhX6]", "values": [{"measurement": "intracellular accumulation compared among phenoxazines", "setting": "[4]", "value": "only compound accumulating to higher levels"}]}, {"compound": "COc1nc2ccc(Br)cc2cc1[C@@H](c1ccccc1)[C@@](O)(CCN(C)C)c1cccc2ccccc12", "note": "[bedaquiline]", "values": [{"measurement": "intracellular accumulation ratio (intracellular/extracellular concentration)", "setting": "[8]", "value": 5.5}, {"measurement": "decrease in bacterial count from starting count", "setting": "M. tuberculosis H37Rv [5]", "value": 1.5, "unit": "log10CFU/ml"}, {"measurement": "change in bacterial count compared to starting bacterial count", "setting": "M. tuberculosis H37Rv [5]", "value": "−1.5", "unit": "log10CFU/ml"}, {"measurement": "viability at 48 h, 5 μg/ml", "setting": "in vitro", "value": "93 ± 4.9", "unit": "%"}, {"measurement": "time to reach equilibrium level / steady state", "setting": "THP-1 cells [9]", "value": "≤ 30", "unit": "min"}, {"measurement": "Equilibrium level reached (intracellular concentration)", "setting": "THP-1 cells [9]; 48 h", "value": "4,410 ± 190.9 ng/ml"}, {"measurement": "equilibrium level (intracellular)", "setting": "THP-1 cells [9]; 48 h", "value": "greater than 4 μg/ml"}]}, {"compound": "C[C@H]1COc2c(N3CCN(C)CC3)c(F)cc3c(=O)c(C(=O)O)cn1c23", "note": "[Levofloxacin, levofloxacin]", "values": [{"measurement": "viability at 48 h, 5 μg/ml", "setting": "in vitro", "value": "95 ± 4.2", "unit": "%"}, {"measurement": "Equilibrium level reached (intracellular concentration)", "setting": "THP-1 cells [9]; 48 h", "value": "860 ± 56.5", "unit": "ng/mL"}]}, {"compound": "NC(=O)c1cnccn1", "note": "[pyrazinamide]", "values": [{"measurement": "log ratio ELF/plasma", "setting": "[10]; in vivo", "value": 3.2}]}, {"compound": "CC(C)=CCC/C(C)=C/CN1CCN([C@@H]2O[C@@H]3O[C@@]4(C)CC[C@H]5[C@H](C)CC[C@@H]([C@H]2C)[C@@]35OO4)CC1", "note": "[WHN296]", "values": [{"measurement": "MIC90", "setting": "M. tuberculosis H37Rv [1]; M. tuberculosis H37Rv in vitro", "value": 18, "unit": "µM"}, {"measurement": "viability at 48 h, 5 μg/ml", "setting": "in vitro", "value": "98 ± 1.2", "unit": "%"}, {"measurement": "Equilibrium level reached (intracellular concentration)", "setting": "THP-1 cells [9]; 48 h", "value": "613.5 ± 19.2", "unit": "ng/mL"}]}, {"compound": "CC(=O)NC[C@H]1CN(c2ccc(N3CCOCC3)c(F)c2)C(=O)O1", "note": "[linezolid]", "values": [{"measurement": "log ratio ELF/plasma", "setting": "[10]", "value": 0.7}, {"measurement": "viability at 48 h, 5 μg/ml", "setting": "in vitro", "value": "92 ± 3.1", "unit": "%"}, {"measurement": "time to reach equilibrium level / steady state", "setting": "THP-1 cells [9]", "value": "≤ 15", "unit": "min"}, {"measurement": "Equilibrium level reached (intracellular concentration)", "setting": "THP-1 cells [9]; 48 h", "value": "770 ± 14.1", "unit": "ng/mL"}]}, {"compound": "CCc1cc(C(N)=S)ccn1", "note": "[ethionamide]", "values": [{"measurement": "log ratio ELF/plasma", "setting": "[10]; in vivo", "value": 2.8}]}, {"compound": "O=C(NN=C(c1ccccn1)c1ccccn1)c1ccncc1", "note": "[DPINH]", "values": [{"measurement": "Equilibrium level reached (intracellular concentration)", "setting": "THP-1 cells [7]", "value": "1,280 ± 113.1 ng/ml"}]}, {"compound": "CCCCCCCCCCOc1cc2c(=O)c(C(=O)NCCOCCO)cn(CC)c2cc1OCC", "note": "[RMB041]", "values": [{"measurement": "MIC90", "setting": "M. tuberculosis H37Rv [1]; M. tuberculosis H37Rv in vitro", "value": 1.61, "unit": "µM"}, {"measurement": "intracellular accumulation ratio (intracellular/extracellular concentration)", "setting": "[8]", "value": 0.25}, {"measurement": "decrease in bacterial count from starting count", "setting": "M. tuberculosis H37Rv [5]", "value": 0.1, "unit": "log10CFU/ml"}, {"measurement": "viability at 48 h, 5 μg/ml", "setting": "in vitro", "value": "97 ± 2.5", "unit": "%"}, {"measurement": "Equilibrium level reached (intracellular concentration)", "setting": "THP-1 cells [9]; 48 h", "value": "953.5 ± 28.2", "unit": "ng/mL"}]}, {"compound": "COc1c(N2C[C@@H]3CCCN[C@@H]3C2)c(F)cc2c(=O)c(C(=O)O)cn(C3CC3)c12", "note": "[moxifloxacin]", "values": [{"measurement": "log ratio ELF/plasma", "setting": "[10]", "value": 1.5}, {"measurement": "intracellular accumulation ratio (intracellular/extracellular concentration)", "setting": "[8]", "value": 5.4}, {"measurement": "decrease in bacterial count from starting count", "setting": "M. tuberculosis H37Rv [5]", "value": "approximately 0.5 log10CFU/ml"}, {"measurement": "change in bacterial count compared to starting bacterial count", "setting": "M. tuberculosis H37Rv [5]", "value": "−0.5", "unit": "log10CFU/ml"}, {"measurement": "Cmax in epithelial lining fluid", "setting": "[11]; human, in vivo", "value": "approximately 10 μg/ml"}, {"measurement": "plasma Cmax", "setting": "[11]; human, in vivo", "value": "approximately 4 μg/ml"}, {"measurement": "concentration in plasma at the 24-h time point", "setting": "[11]; once-off 400 mg oral dose, healthy volunteers", "value": 5000, "unit": "ng/mL"}, {"measurement": "viability at 48 h, 5 μg/ml", "setting": "in vitro", "value": "87 ± 2.7", "unit": "%"}, {"measurement": "Equilibrium level reached (intracellular concentration)", "setting": "THP-1 cells [9]; 48 h", "value": "3,374 ± 48.7 ng/ml"}]}, {"compound": "CO[C@H]1/C=C/O[C@@]2(C)Oc3c(C)c(O)c4c(O)c(c(/C=N/N5CCN(C)CC5)c(O)c4c3C2=O)NC(=O)/C(C)=C\\C=C\\[C@H](C)[C@H](O)[C@@H](C)[C@@H](O)[C@@H](C)[C@H](OC(C)=O)[C@@H]1C", "note": "[rifampin]", "values": [{"measurement": "log ratio ELF/plasma", "setting": "[10]; in vivo", "value": 0.7}, {"measurement": "decrease in bacterial count from starting count", "setting": "M. tuberculosis H37Rv [5]", "value": "approximately 1.5 log10CFU/ml"}, {"measurement": "change in bacterial count compared to starting bacterial count", "setting": "M. tuberculosis H37Rv [5]", "value": "−1.5", "unit": "log10CFU/ml"}, {"measurement": "maximum concentration in epithelial lining fluid", "setting": "[11]; human, in vivo", "value": "approximately 2 μg/ml"}, {"measurement": "viability at 48 h, 5 μg/ml", "setting": "in vitro", "value": "89 ± 2.4", "unit": "%"}, {"measurement": "Equilibrium level reached (intracellular concentration)", "setting": "THP-1 cells [9]; 48 h", "value": "3,050 ± 62.9 ng/ml"}]}, {"compound": "NNC(=O)c1ccncc1", "note": "[isoniazid]", "values": [{"measurement": "log ratio ELF/plasma", "setting": "[10]; in vivo", "value": 1}]}]}
